Source: patent publication US8951972B2, “FGFR1 extracellular domain combination therapies for lung cancer” (Five Prime Therapeutics, Inc., priority 2010, dated 2015)

Assays:
Assay type in all cases: in vivo, SCID mice
[1] = system: H1703 Non-Small Cell Lung Cancer (NSCLC) Xenograft; experiment: H1703 non-small cell lung cancer (NSCLC) xenograft model, tumor volume; settings: day 38; FGFR1-ECD.339-Fc 15 mg/kg i.p. 2x/wk; docetaxel 25 mg/kg i.p. 1x/3 wk x 2 doses
Protocol: Human non-small cell lung cancer (NSCLC) cell line H1703 was used as the tumor model and was purchased from ATCC (Manassas, Va.; Cat. No. CRL-5889).
Docetaxel was purchased from Toronto Research Chemicals (North York, Ontario, Canada; cat. No. D494420) and formulated in H2O containing 5% Tween 80 and 5% glucose. Docetaxel was administered i.p. at 25 mg/kg (equivalent to about 75 mg/m^2 in a human) once every three weeks for two doses. In combination groups, FGFR1-ECD.339-Fc and docetaxel were either given concurrently or sequentially with FGFR1-ECD.339-Fc given one day before docetaxel or vice versa. Human albumin was purchased from Grifols USA (Los Angeles, Calif.; Cat. No. NDC 61953-0002-1), formulated in PBS at 3 mg/mL and was used as negative control at 300 μg/100 μL/mouse (15 mg/kg).
The tumor volume was measured by external caliper to determine the greatest longitudinal diameter (length) and the greatest transverse diameter (width). The tumor volume was then calculated using the following formula: Tumor volume (mm^3)=(length×width^2)/2

[2] = system: A549 Non-Small Cell Lung Cancer (NSCLC) Xenograft; experiment: A549 non-small cell lung cancer (NSCLC) xenograft model, tumor volume; settings: day 28; FGFR1-ECD.339-Fc 15 mg/kg and carboplatin 25 mg/kg i.p. 2x/wk from day 7 x 3 wks; paclitaxel 30 mg/kg i.p. 2x/wk from day 8 x 3 wks
[3] = system: Colo205 Colon Cancer Xenograft; experiment: Colo205 colon cancer xenograft model, tumor volume; settings: day 17; FGFR1-ECD.339-Fc 15 mg/kg i.p. 2x/wk x 4 wks; 5-FU and leucovorin 10 mg/kg each i.p. daily x 5 days; oxaliplatin 15 mg/kg twice per week

FGFR1-ECD.339-Fc: human FGFR1 extracellular domain ending at amino acid 339 fused to an Fc; SEQ ID NO: 6 (mature form)
Fractional tumor volume (FTV), each treatment alone [1]: 0.68
Mean Tumor volume mm^3(±SD) [1]: 557 (±151) mm^3
Tumor growth inhibition (%) [1]: 33%
Fractional tumor volume (FTV), each treatment alone [2]: 0.58
Fractional tumor volume (FTV), each treatment alone [3]: 0.77
